Results: patent publication US6906205B2, “Spiro and dispiro 1,2,4-trioxolane antimalarials” (Medicines for Malaria Venture MMV, priority 2002, dated 2005)
≈ marks a conversion by molar mass, not a printed value.

Legend:
[1] = assay type: physicochemical
Description: It is presumed that thermal decomposition of these trioxolanes was initiated by formation of a 1,5 diradical produced by homolytic cleavage of the peroxide bond of the trioxolane ring.

[2] = system: neuroblastoma cell line; assay: toxicity in a neuroblastoma cell line; assay type: cell-based
[3] = system: Schistosoma mansoni adult schistosomes (49-day-old); assay: effect on adult schistosomes (49-day-old) in mice; assay type: in vivo
Protocol: Mice were infected with 100 Schistosoma mansoni cercariae […]. Each group was treated per os with OZ compounds at single doses of 200, 400, and 600 mg/kg. […] All groups were killed 4 weeks after treatment and the liver and intestine were removed and separated. The liver and intestine were compressed and alive male and female worms could be seen and counted.

[4] = system: P. falciparum; assay: in vitro potency against P. falciparum (strain not stated); assay type: cell-based; settings: Plasmodium falciparum
[5] = system: ANKA strain of Plasmodium berghei; assay: single dose ED50/ED90/ED99 determinations in infected mice; assay type: in vivo; settings: single dose po in SSV, mice, percent reduction in parasitemia on day three post-infection
Method in brief: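 Mice (Moro SPF or NMRI, n=3 per group) infected with P. berghei ANKA received a single dose on day 1 post-infection, vehicle 0.5% CMC/0.5% benzyl alcohol/0.4% Tween 80/0.9% NaCl in water. Read-out is percent reduction in parasitemia on day 3; ED values by nonlinear fitting.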

[6] = system: P. falciparum K1 strain (Thailand resistant to chloroquine); assay: semiautomated microdilution assay, [3H]-hypoxanthine incorporation, K1 strain; assay type: cell-based, Plasmodium falciparum; settings: Plasmodium falciparum; K1 strain, 72 h incubation; read-out: IC50 (ng/ml) K1
Method in brief: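 Compounds were tested against intraerythrocytic parasites taken from asynchronous stock cultures, using semiautomated microdilution. IC50 values were estimated by logit regression analysis.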

[7] = Rane test, single 640 mg/kg doses in mice; assay type: in vivo
[8] = system: ANKA strain of P. berghei; assay: single dose STI in vivo screen in infected mice; parameters: species or system Plasmodium berghei
Method in brief: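 Groups of 3-5 Moro SPF or NMRI mice infected with the ANKA strain of P. berghei received a single dose of trioxolane on day one post-infection. The compound was given in 3% ethanol and 7% Tween 80 or in SSV (0.5% w/v CMC, 0.5% v/v benzyl alcohol, 0.4% v/v Tween 80, 0.9% w/v sodium chloride in water). Antimalarial activity was scored as percent reduction in parasitemia on day three and as survival time versus untreated controls. Survival to day 30 counted as cure.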

Row | Tm, dec (DSC thermal stability) [1] [°C] | Structure (SMILES) | toxicity in a neuroblastoma cell line [2] | adult worms at day 49, per os 200 mg/kg, DEAD WORM (%) ([3]; single 200 mg/kg per os) | adult worms at day 49, per os 400 mg/kg, DEAD WORM (%) ([3]; single 400 mg/kg per os) | adult worms at day 49, per os 600 mg/kg, DEAD WORM (%) ([3]; single 600 mg/kg per os) | IC50 [4] [ng/mL] | ED50 ([5]; Plasmodium berghei, read-out: ED50) [mg/kg] | ED90 [5] [mg/kg] | ED99 [5] [mg/kg] | IC50 [6] [ng/mL] | toxicity at single 640 mg/kg doses in mice in the Rane test [7] | Activity (%) po ([8]; percent reduction in parasitemia day 3 post-infection, single 10 mg/kg po in 3% ethanol and 7% Tween 80, mice) [%] | Activity (%) sc ([8]; percent reduction in parasitemia day 3 post-infection, single 10 mg/kg sc in 3% ethanol and 7% Tween 80, mice) [%] | Activity (%) SSVpo ([8]; percent reduction in parasitemia day 3 post-infection, single po dose in standard suspending vehicle (SSV), mice) [%] | Survival (days) po ([8]; single 10 mg/kg po in 3% ethanol and 7% Tween 80, untreated control 5.6 ± 0.3) [days] | Survival (days) sc ([8]; single 10 mg/kg sc in 3% ethanol and 7% Tween 80, untreated control 5.6 ± 0.3) [days] | Survival (days) SSVpo ([8]; single po dose in SSV, untreated control 5.6 ± 0.3) [days]
1 | 181 | C[C@@H]1CC[C@H]2[C@@H](C)C(=O)O[C@@H]3O[C@@]4(C)CC[C@@H]1[C@]32OO4 [Artemisinin, artemisinin] | – | – | – | – | – | – | – | – | – | – | – | – | – | – | – | –
2 | – | O=C1CCC2(CC1)OOC1(O2)C2CC3CC(C2)CC1C3 (centres unmarked) [OZ05] | no toxicity | 12 | 32 | 58 | 1 to 5 (≈ 3.59 to 18 nM) | 8.7 | 12 | 15 | 0.19 (≈ 0.683 nM) | no toxicity | 94 | 99.7 | 74 | 7.1 | 8.6 | 6.2
